Series [1] has as its system healthy and P. falciparum-infected RBCs. Description: TopFluor Cholesterol uptake by RBCs (flow cytometry). The settings on record: 50 µM ligand; for effect on cholesterol uptake: healthy and infected RBCs. The format is cell-based, human. The procedure:
Figure 5 Cholesterol uptake induced by TSPO ligands. Healthy (A) or infected red blood cells, at 2 to 5% parasitemia (B) were incubated in the presence of TopFluor Cholesterol and 50 µM of TSPO ligands. Cholesterol uptake was assessed at different time points by flow cytometry. MFI values were normalized to vehicle treated cells. Data are presented as mean ± SEM; N = 4. Differences between each ligand and control condition (vehicle) were considered significant when * p < 0.05.
Cholesterol uptake was measured using TopFluor Cholesterol and 50 µM of TSPO ligands. Cholesterol uptake was assessed at different time points by flow cytometry. Mean Fluorescent Intensity (MFI) values were normalized to vehicle treated cells.
Fluorescence measurements in all samples of the P. falciparum’s viability, ZnPPIX uptake, cholesterol uptake, and ROS accumulation assays, were performed with a FACSCanto (BD Biosciences, Rungis, France) and further analyzed with Flowjo-3 software. Infected-RBCs were distinguished from non-infected ones contained in the same culture by TOPRO-3 signaling (1/2, 500), with the negative level established with the same non-infected RBCs used for parasite culture. ZnPPIX (Ex.: 488 nm, Em.: 585/42 nm), TopFluor Cholesterol (Ex.: 495 nm, Em.: 507 nm) and DCFDA (Ex.: 488 nm, Em.: 530/30 nm) levels were measured in both the infected and non-infected RBC populations, results were normalized to the corresponding solvent for each ligand.
(In general: Flow cytometry measures light scatter and fluorescence of single cells or particles in a stream.)

Series [2] is described as follows: Hemolysis induced by TSPO ligands (Hb release, absorption at 405 nm). The settings on record: human, Hb released, mean ± SEM, N = 4, read-out: Hemolysis induced by TSPO ligands treatment. The format is cell-based. The procedure:
Hemolysis leads to hemoglobin (Hb) release into the extracellular milieu, where the Hb content can be quantified by monitoring light absorption, at 405 nm. Using this procedure, we previously observed that the amount of Hb was proportional to the amount of lysed RBCs. The Hb content of the samples was determined as described above. Then, the amount of lytic ATP contributing to [ATPe] was estimated from the total amount of hemolysis cells (calculated as described above) and the intracellular ATP content of the RBCs, which under the experimental conditions was 148 pmol ATP per 10^6 RBCs, as previously reported by our group.

Series [3] concerns healthy and P. falciparum-infected RBCs. Description: ZnPPIX uptake in healthy and infected RBCs (flow cytometry). The format is cell-based, human. The settings on record: 20 µM ZnPPIX, 50 µM ligand. The procedure:
Figure 2 ZnPPIX uptake in healthy and infected RBCs induced by TSPO ligands. Healthy RBC (A) and infected RBC (B) at 2 to 5% parasitemia were incubated in the presence of 20 µM ZnPPIX and 50 µM TSPO ligands, and the uptake of ZnPPIX was assessed at different time points by flow cytometry. MFI values were normalized to background levels for the control and the ligand-treated conditions. Data are presented as the mean ± SEM; N = 7. Statistical analyses were performed for each ligand and the control condition. Differences were considered significant when * p < 0.05; ** p < 0.01; *** p < 0.001.
P. falciparum cultures were incubated at 2–5% parasitemia (synchronized cultures, ring and trophozoite stages) in 200 µL of RPMI 10% Albumax containing 20 µM ZnPPIX. […] Cultures were kept at 37 °C, in the dark, for 3 to 18 h and further analyzed by FACS.
(§1) Fluorescence measurements in all samples of the P. falciparum’s viability, ZnPPIX uptake, cholesterol uptake, and ROS accumulation assays, were performed with a FACSCanto (BD Biosciences, Rungis, France) and further analyzed with Flowjo-3 software. […] ZnPPIX (Ex.: 488 nm, Em.: 585/42 nm), TopFluor Cholesterol (Ex.: 495 nm, Em.: 507 nm) and DCFDA (Ex.: 488 nm, Em.: 530/30 nm) levels were measured in both the infected and non-infected RBC populations, results were normalized to the corresponding solvent for each ligand.

Series [4] concerns human red blood cells. On the set-up: method as in PMID 30061676. The following applies: cited from earlier work.
For series [5], the target named is T1, TSPO2-expressing RBC membranes (Homo sapiens, UniProt Q5TGU0).
T1 sequence (Q5TGU0 1-170): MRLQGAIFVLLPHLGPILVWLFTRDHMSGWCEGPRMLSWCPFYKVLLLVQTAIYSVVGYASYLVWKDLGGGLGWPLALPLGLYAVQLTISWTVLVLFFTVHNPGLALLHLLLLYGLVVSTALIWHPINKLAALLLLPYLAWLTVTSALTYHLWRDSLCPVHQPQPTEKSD
Description: (3H) PK 11195 displacement binding on RBCs. Also noted: endogenous in cells; host or cells: human red blood cells purified from fresh blood of healthy volunteers. The procedure: The affinity of the ligands for the RBC membranes was assessed by typical displacement experiments. RBCs were exposed to 10 nM (^3H) PK 11195 and increasing concentrations of non-radiolabeled TSPO ligands.
RBCs were washed twice in phosphate buffer saline (PBS) (pH 7.4). Samples were incubated in a final incubation volume of 0.3 mL, in the presence of (^3H) PK 11195 (Perkin Elmer, Courtaboeuf, France; 83.5 Ci/mmol) and increasing concentrations of unlabeled TSPO ligands, at room temperature (RT). After 30 min incubation, assays were stopped by filtration through Whatman GF/C filters. Radioactivity trapped on the filters was determined by liquid scintillation counting (Tri-Carb 2800TR, Perkin-Elmer, Courtaboeuf, France).

Series [6] relates to human red blood cells. Description: ATP release from RBCs (luciferase luminometry). The following applies: for induction of ATP release (comparison between ligands): 10 or 30 µM ligand, 37 °C, 10% hematocrit; for ligand-induced ATP release in presence of VDAC blocker Bcl-XLBH4: Bcl-XLBH4 10 µM; for ligand-induced ATP release in presence of pannexin-1 inhibitors: carbonexolone 10 µM or probenecid 10 µM. The format is cell-based. The procedure:
Figure 6 TSPO ligand-induced ATP release. ATP release from human red blood cells was measured at 37 °C, 10% Hematocrit, as described in material and methods. Values are the ratio between extracellular ATP (ATPe) levels after and before the addition of TSPO ligands. […] Results are expressed as means ± SEM and considered different from basal (vehicle, unstimulated) values when * p < 0.05; ** p < 0.01 or from those incubated in the presence of Bcl-XLBH4 when ^# p < 0.05 and ^## p < 0.01; N = 7.
Extracellular ATP (ATPe) concentration was measured by quantitative luminometry using firefly luciferase, which catalyzes the oxidation of luciferin in the presence of ATP to produce light as previously described. The ATPe concentration was determined at discrete times (offline). Changes in [ATPe] over time were used to estimate ATP release from RBCs.
10 µL of RBCs at 10% hematocrit were incubated for 10 min, at 37 °C, in the presence of the ligand, or of an equal vehicle volume, with 30 µL of MKB medium. At discrete times, samples were centrifuged at 450× g for 3 min, at RT. Paired samples were taken to assess ATPe and hemolysis. The supernatants were stored at −20 °C, prior to the analysis. Then, 4.5 µL of the supernatant samples were added to 45 µL of the luminometry mix (MKB medium containing 0.01 µM luciferase, 0.2 mM luciferin, and 0.1 mg/mL of Coenzyme A) and placed in the assay chamber of the luminometer to determine the light intensity. At the end of the incubations, the time course of light emission was transformed into the ATPe concentration versus time using a calibration curve, with ATP stock solutions ranging from 1 to 50 µM. The results were expressed as ΔATPe (i.e., the ratio of [ATPe] before and after the addition of a given stimulus).
The increase in [ATPe] due to regulated ATP release was calculated by taking the experimentally-measured [ATPe] and subtracting the estimated [ATPe] due to hemolysis. Except where otherwise stated, the results of ATP release experiments reflected the ATP release from non-lytic origin.

In series [7] the test system is P. falciparum-infected RBCs. Description: Sorbitol-induced hemolysis in infected RBCs. The format is cell-based, human. The following applies: 50 µM ligand. The procedure: Figure 4 Sorbitol-induced hemolysis is modulated by the TSPO ligands in infected red blood cells. Infected RBCs at 2 to 5 % parasitemia were washed three times in a culture medium, without serum, and resuspended at 50% hematocrit in a media containing 10 μM (A) or 50 μM (B) TSPO ligands. Hemolysis was quantified at several time-points, by absorption at 540 nm wavelength. Data are presented as mean ± SEM; N = 4. Differences between each ligand and control condition (vehicle) were considered significant when p < 0.01.
Sorbitol hemolysis assays were carried as previously described using hemoglobin release to estimate lysis time. Monoexponential functions were fitted to the data from the sorbitol-induced hemolysis (%) (Figure 4), at different times of exposure to the ligands. Half time values (t1/2) for hemolysis were then calculated as t1/2= ln (2)/k, where k is the rate coefficient of the exponential curve.

Series [8] deals with TSPO1-enriched rat heart microsomes. Also noted: method as in doi:10.1002/slct.201701565. The settings on record: cited from earlier work.
Series [9] concerns P. falciparum strain FCR3. Description: P. falciparum growth inhibition (flow cytometry of parasitemia). The settings on record: 10 and 50 µM. The format is cell-based, Plasmodium falciparum. The procedure:
Figure 1 TSPO ligands inhibited the P. falciparum growth. Infected RBCs were diluted to 1% parasitemia, and maintained at 1–5%, by dilution, for […]. Percentages of growth-inhibition were obtained, after two parasite cycles, by the flow cytometry analysis of parasitemia, and normalized to the control condition (solvent-treated cells). Data are presented as the mean ± SEM; N = 4. Differences between the control condition and the treatment were considered significant at ** p < 0.01; *** p < 001.
P. falciparum strain FCR3 culture was performed in RPMI 1640 medium containing 10% Albumax, at 5% hematocrit, in a 5% O2, 3% CO2 atmosphere. […] Parasitemia was determined after 48 h and 96 h (after one or two complete parasite’s cycles, respectively) by flow cytometry (FACS), as previously described.
as §1

Setting [10] is: displacement of 10 nM (3H) PK 11195, mean ± SEM, N = 3, read-out: IC50, TSPO ligands' affinity for RBC membranes.

Molecules are shown by their SMILES. Read-outs that look alike come from different tables or passages of the source.

By IC50 is commonly meant the concentration at which inhibition is half-maximal.

On to `CCN(CC)C(=O)Cn1c(=O)n2cc(-c3ccco3)nc2c2ccccc21` [NCS1018, N,N-Diethyl-2-(2-(furan-2-yl)-5-oxomidazo[1-c]quinazolin-6(5H)-yl)acetamide], for which, in [1], the “effect on cholesterol uptake” value was “did not alter cholesterol uptake”. In addition, the hemolysis in series [2] (red blood cells (RBCs)) was found to be 0.72 ± 0.06%. In addition, the “ZnPPIX uptake increase (effect in words)” value in series [3] is listed as “no significant effect”. Further, in the series with human red blood cells [4], the “non-lytic ATP efflux from RBCs” value is “triggered non-lytic ATP efflux”. Also, the IC50 in [5] (setting [10]) was determined as 590 ± 70 nM. Besides, in the series on human red blood cells [6], the “induction of ATP release (comparison between ligands)” value is reported as “most efficient in inducing ATP release”, the “ligand-induced ATP release in presence of VDAC blocker Bcl-XLBH4” value was “significantly inhibited” and the “ligand-induced ATP release in presence of pannexin-1 inhibitors” value is recorded as “not affected”. Also, in series [7], the “t1/2 of sorbitol-induced hemolysis relative to control samples” value is on record as “eight-fold higher”.
Regarding `CCCN(CCC)C(=O)Cn1c(=O)n2cc(-c3ccccc3)nc2c2ccccc21` [NCS1026, N,N-dipropyl-2-(5-oxo-2-phenylimidazo[1-c]quinazolin-6(5H)-yl)acetamide], the figures for the “inhibition of cholesterol uptake” value in series [1] (1 h of incubation) and in series [1] (5 h of incubation) were 40% and 20%, respectively. For the same molecule, the IC50 in [8] was 10 nM; in [5] (setting [10]), 280 ± 60 nM. Further, the hemolysis in series [2] (red blood cells (RBCs)) came out at 0.52 ± 0.06%. The “ZnPPIX uptake increase (effect in words)” value in series [3] is “no significant effect”. The “t1/2 of sorbitol-induced hemolysis relative to control samples” value in series [7] was “three-fold higher”.
Turning to `CCC(C)N(C)C(=O)c1cc2ccccc2c(-c2ccccc2Cl)n1` (stereo not drawn) [PK 11195, reference compound], the hemolysis in [2] turned out to be 0.6 ± 0.06%. For the same molecule, the “t1/2 of sorbitol-induced hemolysis relative to control samples” value in [7] is listed as “three-fold higher”.
As for `CN1C(=O)CN=C(c2ccc(Cl)cc2)c2cc(Cl)ccc21` [Ro5-4864, reference compound], the “effect on cholesterol uptake” value in [1] is “did not alter cholesterol uptake”. Also, the hemolysis in series [2] is 0.68 ± 0.16%. Besides, the “non-lytic ATP efflux from RBCs” value in the series on human red blood cells [4] is “triggered non-lytic ATP efflux”. The IC50 in [5] came to 1500 ± 600 nM. For the same molecule, in the series with human red blood cells [6], the “induction of ATP release (comparison between ligands)” value is recorded as “a bit lower”, the “ligand-induced ATP release in presence of VDAC blocker Bcl-XLBH4” value was “significantly inhibited” and the “ligand-induced ATP release in presence of pannexin-1 inhibitors” value is listed as “not affected”. For the same molecule, in [7], the “t1/2 of sorbitol-induced hemolysis relative to control samples” value is reported as “eight-fold higher”.
As to `CN(C)C(=O)Cc1nn(-c2ccccc2)c(=O)c2c1c1ccc(Cl)cc1n2C` [SSR-180,575, reference compound], in series [1], the “effect on cholesterol uptake” value is on record as “did not alter cholesterol uptake”. Also, in series [2] (red blood cells (RBCs)), the hemolysis was 0.7 ± 0.08%. The “anti-plasmodium activity (comparison between ligands)” value in series [9] is “highest anti-plasmodium activity trend”.
As to `CC(C)CCC[C@@H](C)[C@H]1CC[C@H]2[C@@H]3CCC4=CC(=NO)CC[C@]4(C)[C@H]3CC[C@]12C` [TRO19622], in the series with human red blood cells [4], the “non-lytic ATP efflux from RBCs” value is “triggered non-lytic ATP efflux”.

Values taken from paper PMC6213633, “Induction of ATP Release, PPIX Transport, and Cholesterol Uptake by Human Red Blood Cells Using a New Family of TSPO Ligands” (International Journal of Molecular Sciences, 2018).
